Patent US20230083973A1, “SUBSTITUTED CYCLOPROPYL-2,2'-BIP[…], ANALOGUES THEREOF, AND METHODS USING SAME” (priority 2019, published 2023)
pEC50: −log10 of the molar value. Read-outs that look alike come from different tables or passages of the source.

System: HBsAg
Assay: HBsAg assay: inhibition of HBsAg in HepG2.2.15 cells (chemiluminescence immunoassay of supernatant)
Assay type: cell-based, hepatitis B virus
Conditions: HBsAg in supernatant at day 6 after exposure to compound, 0.5% DMSO
How it was run: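 Secreted HBsAg quantified by CLIA in day-6 supernatants of HepG2.2.15 cultures given compound dilutions at 0.5% final DMSO, with one compound/medium replenishment after 2–3 days. Dose-response fits gave EC50 (50% inhibition); viability checked separately by CellTiter-Glo.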

[1] = read-out: sAg EC50, HepG2.2.15 cells
[2] = Hepatitis B virus, HepG2.2.15, 144 h, read-out: sAg EC50, HepG2.2.15 cells

SMILES	pEC50 [1]	pEC50 [2]
Fc1ccc(C2CC2c2cnc(-c3ncccn3)nc2)cc1OCC(F)F (single isomer, unassigned) [Example 28, trans-5-(2-(3-(2,2-Difluoroethoxy)-4-fluorophenyl)cyclopropyl)-2,2′-bipyrimidine]	7.25	
COc1cc(F)cc(C2CC2c2cnc(-c3ncccn3)nc2)c1 (single isomer, unassigned) [Example 113, trans-5-(2-(3-Fluoro-5-methoxyphenyl)cyclopropyl)-2,2′-bipyrimidine]	7.59	
COC1CN(c2cc([C@@H]3C[C@H]3c3cnc(-c4ncccn4)nc3)cc(F)c2F)C1 (single isomer, unassigned) [Example 123, trans-5-(2-(3,4-Difluoro-5-(3-methoxyazetidin-1-yl)phenyl)cyclopropyl)-2,2′-bipyrimidine]	7.92	
CO[C@@H]1CCN(c2cc(C3CC3c3cnc(-c4ncccn4)nc3)cc(F)c2F)C1 (single isomer, unassigned) [Example 97]	7.85	
COCCCn1ncc2c(F)cc([C@@H]3C[C@H]3c3cnc(-c4ncccn4)nc3)cc21 (relative stereo) [Example 275, trans-6-(2-([2,2′-Bipyrimidin]-5-yl)cyclopropyl)-4-fluoro-1-(3-methoxypropyl)-1H-indazole]		7.12
COc1cc(C2CC2c2cnc(-c3ncccn3)nc2-c2ccccc2)ccc1F (single isomer, unassigned) [Example 142, trans-5-(2-(4-Fluoro-3-methoxyphenyl)cyclopropyl)-4-phenyl-2,2′-bipyrimidine]	5.30	
CC1(C)CCN(c2cc(C3CC3c3cnc(-c4ncccn4)nc3)cc(F)c2F)C1 (single isomer, unassigned) [Example 220, trans-5-(2-(3-(3,3-Dimethylpyrrolidin-1-yl)-4,5-difluorophenyl)cyclopropyl)-2,2′-bipyrimidine]	7.52	
Cn1cnc(COc2cc([C@@H]3C[C@H]3c3cnc(-c4ncccn4)nc3)cc(F)c2F)n1 (relative stereo) [Example 217, trans-5-(2-(3,4-Difluoro-5-((1-methyl-1H-1,2,4-triazol-3-yl)methoxy)phenyl)cyclopropyl)-2,2′-bipyrimidine]		6.70
COCCCn1cc2c(F)cc(C3CC3c3cnc(-c4ncccn4)nc3)cc2n1 (single isomer, unassigned) [Example 268, trans-6-(2-([2,2′-Bipyrimidin]-5-yl)cyclopropyl)-4-fluoro-2-(3-methoxypropyl)-2H-indazole]	8.00	
CC(=O)N1CC[C@@H](Nc2cc(C3CC3c3cnc(-c4ncccn4)nc3)cc(F)c2F)C1 (single isomer, unassigned) [Example 226]	6.00	
O[C@@H]1CCN(c2cc(C3CC3c3cnc(-c4ncccn4)nc3)ccc2F)C1 (single isomer, unassigned) [Example 69]		6.77
Cc1cn(-c2cc(C3CC3c3cnc(-c4ncccn4)nc3)cc(F)c2F)cn1 (single isomer, unassigned) [Example 262, trans-5-(2-(3,4-Difluoro-5-(4-methyl-1H-imidazol-1-yl)phenyl)cyclopropyl)-2,2′-bipyrimidine]	7.33	
Fc1cc(C2CC2c2cnc(-c3ncccn3)nc2)cc(NC2CCCC2)c1F (single isomer, unassigned) [Example 208, trans-5-(2-([2,2′-Bipyrimidin]-5-yl)cyclopropyl)-N-cyclopentyl-2,3-difluoroaniline]	6.96	
COc1cc(C2CC2c2cnc(-c3ncccn3)nc2)c(-c2ccccc2)cc1Cl (single isomer, unassigned) [Example 158, trans-5-(2-(5-Chloro-4-methoxy-[1,1′-biphenyl]-2-yl)cyclopropyl)-2,2′-bipyrimidine]	5.52	
Fc1ccc(C2CC2c2cnc(-c3ncccn3)nc2)cc1Cl (single isomer, unassigned) [Example 30, trans-5-(2-(3-Chloro-4-fluorophenyl)cyclopropyl)-2,2′-bipyrimidine]	7.10	
CO[C@H]1CCN(c2cc(C3CC3c3cnc(-c4ncccn4)nc3)cc(Cl)c2F)C1 (single isomer, unassigned) [Example 116]	7.05	
Fc1cc(C2CC2c2cnc(-c3ncccn3)nc2)cc(N2CCC3(COC3)C2)c1F (single isomer, unassigned) [Example 222, trans-6-(5-(2-([2,2′-Bipyrimidin]-5-yl)cyclopropyl)-2,3-difluorophenyl)-2-oxa-6-azaspiro[3.4]octane]	6.72	
COc1cc(C2CC2c2cnc(-c3ncccn3)nc2)cc(OC)c1F (single isomer, unassigned) [Example 146, trans-5-(2-(4-Fluoro-3,5-dimethoxyphenyl)cyclopropyl)-2,2′-bipyrimidine]	6.96	
COCCCn1cnc2c(F)cc([C@@H]3C[C@H]3c3cnc(-c4ncccn4)nc3)cc21 (relative stereo) [Example 274, trans-6-(2-([2,2′-Bipyrimidin]-5-yl)cyclopropyl)-4-fluoro-1-(3-methoxypropyl)-1H-benzo[d]imidazole]		7.19

SMILES	pEC50 [1]	pEC50 [2]
CO[C@@H]1CCN(c2cc(C3CC3c3cnc(-c4ncccn4)nc3)cc(F)c2F)C1 (single isomer, unassigned) [Example 96]	7.03	
COc1cc(C2CC2c2cnc(-c3ncccn3)nc2N2CCCCC2)ccc1F (single isomer, unassigned) [Example 144, trans-5-(2-(4-Fluoro-3-methoxyphenyl)cyclopropyl)-4-(piperidin-1-yl)-2,2′-bipyrimidine]	4.60	
Fc1cc([C@@H]2C[C@H]2c2cnc(-c3ncccn3)nc2)cc2ccccc12 (relative stereo) [Example 169, trans-5-(2-(4-Fluoronaphthalen-2-yl)cyclopropyl)-2,2′-bipyrimidine]		7.44
COc1cc([C@@H]2C[C@H]2c2cnc(-c3ncccn3)nc2)cc(C(F)(F)F)c1F (relative stereo) [Example 165, trans-5-(2-(4-Fluoro-3-methoxy-5-(trifluoromethyl)phenyl)cyclopropyl)-2,2′-bipyrimidine]		6.60
CC1(C)CCN(c2cc(C3CC3c3cnc(-c4ncccn4)nc3)cc(F)c2F)C1 (single isomer, unassigned) [Example 221, trans-5-(2-(3-(3,3-Dimethylpyrrolidin-1-yl)-4,5-difluorophenyl)cyclopropyl)-2,2′-bipyrimidine]	6.49	
Fc1cc([C@@H]2C[C@H]2c2cnc(-c3ncccn3)nc2)cc(OC2CC3(COC3)C2)c1F (relative stereo) [Example 243, trans-5-(2-(3-((2-Oxaspiro[3.3]heptan-6-yl)oxy)-4,5-difluorophenyl)cyclopropyl)-2,2′-bipyrimidine]		6.96
O[C@H]1CCN(c2cc(C3CC3c3cnc(-c4ncccn4)nc3)cc(F)c2F)C1 (single isomer, unassigned) [Example 106]	7.07	
COc1ccc([C@H]2C[C@H]2c2cnc(-c3ncccn3)nc2)c(F)c1 (relative stereo) [Example 73, cis-5-(2-(2-Fluoro-4-methoxyphenyl)cyclopropyl)-2,2′-bipyrimidine]		5.05
COc1cc(C2CC2c2cnc(-c3ncccn3)nc2)cc(N2CCCC2)c1F (single isomer, unassigned) [Example 100, trans-5-(2-(4-Fluoro-3-methoxy-5-(pyrrolidin-1-yl)phenyl)cyclopropyl)-2,2′-bipyrimidine]	7.21	
Fc1cc([C@@H]2C[C@H]2c2cnc(-c3ncccn3)nc2)cc(-n2cccn2)c1F (single isomer, unassigned) [Example 253, trans-5-(2-(3,4-difluoro-5-(1H-pyrazol-1-yl)phenyl)cyclopropyl)-2,2′-bipyrimidine]		7.54
COc1c(Cl)ccc(C2CC2c2cnc(-c3ncccn3)nc2)c1C (single isomer, unassigned) [Example 71, trans-5-(2-(4-Chloro-3-methoxy-2-methylphenyl)cyclopropyl)-2,2′-bipyrimidine]	6.70	
Fc1ccc(C2CC2c2cnc(-c3ncccn3)nc2)cc1OC(F)F (single isomer, unassigned) [Example 185, trans-5-(2-(3-(Difluoromethoxy)-4-fluorophenyl)cyclopropyl)-2,2′-bipyrimidine]	6.92	
Fc1ccc(C2CC2c2cnc(-c3ncccn3)nc2)cc1N1CCCC1 (single isomer, unassigned) [Example 19, trans-5-(2-(4-Fluoro-3-(pyrrolidin-1-yl)phenyl)cyclopropyl)-2,2′-bipyrimidine]		7.41
COc1c(F)ccc(C2CC2c2cnc(-c3ncccn3)nc2)c1F (single isomer, unassigned) [Example 190, trans-5-(2-(2,4-Difluoro-3-methoxyphenyl)cyclopropyl)-2,2′-bipyrimidine]	5.89	
CCCc1cc(F)c(OC)cc1C1CC1c1cnc(-c2ncccn2)nc1 (single isomer, unassigned) [Example 37, trans-5-(2-(4-Fluoro-5-methoxy-2-propylphenyl)cyclopropyl)-2,2′-bipyrimidine]	5.70	
Fc1ccc(C2CC2c2cnc(-c3ncccn3)nc2)cc1N1CCC1 (single isomer, unassigned) [Example 82, trans-5-(2-(3-(Azetidin-1-yl)-4-fluorophenyl)cyclopropyl)-2,2′-bipyrimidine]	6.96	
CC(=O)Nc1cc(C2CC2c2cnc(-c3ncccn3)nc2)ccc1Cl (single isomer, unassigned) [Example 206, trans-N-(5-(2-([2,2′-Bipyrimidin]-5-yl)cyclopropyl)-2-chlorophenyl)acetamide]	6.09	
Fc1cc(C2CC2c2cnc(-c3ncccn3)nc2)cc(OC2CCCC2)c1F (single isomer, unassigned) [Example 246, trans-5-(2-(3-(Cyclopentyloxy)-4,5-difluorophenyl)cyclopropyl)-2,2′-bipyrimidine]	6.82	
